Measured values published in patent US10278396B2, “Synergistic Bacillus thuringiensis subsp. kurstaki and cyantraniliprole mixtures for diamondback moth, beet armyworm, sugarcane borer, and soybean looper control” (priority 2016, dated 2019).
Like-named read-outs stand apart in the source and are kept apart here.

Key:
diamondback moth larvae = assay: leaf dip test, diamondback moth larvae; format: in vivo; conditions: Plutella xylostella, foliar, Btk 0.54 ppm, cyantraniliprole 0.1 ppm, mixture 0.54 ppm + 0.1 ppm, read-out: % Efficacy
Protocol: (§1) For these tests, standardized laboratory leaf dip methods were used to inoculate plant material with treatment(s). Dry, treated leaves were placed into Petri dishes (100×25 mm) containing filter paper wetted with 500 μl of distilled H2O (“dH2O”). Each dish was then infested with between 5 and 10 larvae, dependent on species. Efficacy ratings were taken at specified intervals. Synergy ratings were calculated for each test.
In this study, the response of diamondback moth larvae to synergistic amounts of Bacillus thuringiensis subsp. kurstaki (“Btk”) and cyantraniliprole was observed.
% Cexp=A+B−(AB/100), where % Cexp is the expected efficacy and “in which A and B are the control levels given by the single [insecticides]. […] Adopting a conservative approach, Applicant determined synergy to be present at ratios of ≥1.15. […]
In order to determine synergy, rates below normal field rate ranges must be used. If normal field rate ranges are used, all of the larvae would die (combining a lethal or near lethal dose of Bacillus thuringiensis subsp. kurstaki with a lethal dose of cyantraniliprole would most likely lead to larvae death) in every treatment and synergy would not be able to be determined. […]

beet armyworm larvae = assay: leaf dip test, beet armyworm larvae; format: in vivo; conditions: Spodoptera exigua, foliar, Btk 0.54 ppm, cyantraniliprole 1.0 ppm, mixture 0.54 ppm + 1.0 ppm, read-out: % Efficacy
Protocol: as §1
(§2) % Cexp=A+B−(AB/100), where % Cexp is the expected efficacy and “in which A and B are the control levels given by the single [insecticides]. If the ratio between the experimentally observed efficacy of the mixture Cobs and the expected efficacy of the mixture is greater than 1, synergistic interactions are present in the mixture.” (Gisi, Synergisitic Interaction of Fungicides in Mixtures, The American Phytopathological Society, 86:11, 1273-1279, 1996). Adopting a conservative approach, Applicant determined synergy to be present at ratios of ≥1.15.
In this study, the response of beet armyworm larvae to synergistic amounts of Bacillus thuringiensis subsp. kurstaki and cyantraniliprole was observed.
(§3) Bacillus thuringiensis subsp. kurstaki was applied at a concentration of 0.54 ppm (0.54 μg/ml). Cyantraniliprole was applied at a concentration of 1.0 ppm (1.0 μg/ml). […]

cabbage looper larvae = assay: leaf dip test, cabbage looper larvae; format: in vivo; conditions: Trichoplusia ni, foliar, Btk 0.54 ppm, cyantraniliprole 0.50 ppm, mixture 0.54 ppm + 0.50 ppm, read-out: % Efficacy
Protocol: as §1, §2
In this study, the response of cabbage looper larvae to Bacillus thuringiensis subsp. kurstaki and cyantraniliprole was observed.
Bacillus thuringiensis subsp. kurstaki was applied at a concentration of 0.54 ppm (0.54 μg/ml). Cyantraniliprole was applied at a concentration of 0.50 ppm (0.50 μg/ml). […]

sugarcane borer larvae = assay: leaf dip test, sugarcane borer larvae; format: in vivo; conditions: Diatraea saccharalis, foliar, Btk 0.54 ppm, cyantraniliprole 1.0 ppm, mixture 0.54 ppm + 1.0 ppm, read-out: % Efficacy
Protocol: as §1, §2
In this study, the response of sugarcane borer larvae to synergistic amounts of Bacillus thuringiensis subsp. kurstaki and cyantraniliprole was observed.
as §3

[1] = test system: southwestern corn borer larvae; assay: leaf dip test, southwestern corn borer larvae; format: in vivo, Diatraea grandiosella; conditions: foliar, Btk 0.54 ppm, cyantraniliprole 0.1 ppm, mixture 0.54 ppm + 0.1 ppm, read-out: % Efficacy
Protocol: as §1, §2
In this study, the response of southwestern corn borer larvae to Bacillus thuringiensis subsp. kurstaki and cyantraniliprole was observed.
Bacillus thuringiensis subsp. kurstaki was applied at a concentration of 0.54 ppm (0.54 μg/ml). Cyantraniliprole was applied at a concentration of 0.1 ppm (0.1 μg/ml). […]

soybean looper larvae = assay: leaf dip test, soybean looper larvae; format: in vivo, Chrysodeixis includens; conditions: foliar, Btk 0.54 ppm, cyantraniliprole 1.0 ppm, mixture 0.54 ppm + 1.0 ppm, read-out: % Efficacy
Protocol: as §1, §2
In this study, the response of soybean looper larvae to synergistic amounts of Bacillus thuringiensis subsp. kurstaki and cyantraniliprole was observed.
as §3

corn earworm larvae = assay: leaf dip test, corn earworm larvae; format: in vivo; conditions: Helicoverpa zea, foliar, Btk 0.54 ppm, cyantraniliprole 10.0 ppm, mixture 0.54 ppm + 10.0 ppm, read-out: % Efficacy
Protocol: as §1, §2
In this study, the response of corn earworm larvae to Bacillus thuringiensis subsp. kurstaki and cyantraniliprole was observed.
Bacillus thuringiensis subsp. kurstaki was applied at a concentration of 0.54 ppm (0.54 μg/ml). Cyantraniliprole was applied at a concentration of 10.0 ppm (10.0 μg/ml). […]

SMILES: CNC(=O)c1cc(C#N)cc(C)c1NC(=O)c1cc(Br)nn1-c1ncccc1Cl [Cyantraniliprole, 3-Bromo-1-(3-chloro-2-pyridinyl)-N-[4-cyano-2-methyl-6-(methylcarbamoyl)phenyl]-1H-pyrazole-5-carboxamide]
- Emax at 0.1 ppm (diamondback moth larvae; 24 h after treatment): 16%
- Emax at 0.1 ppm (diamondback moth larvae; 48 h after treatment): 47%
- Emax at 1 ppm (beet armyworm larvae; 24 h after treatment): 20%
- Emax at 1 ppm (beet armyworm larvae; 48 h after treatment): 37%
- Emax at 0.5 ppm (cabbage looper larvae; 24 h after treatment): 15%
- Emax at 0.5 ppm (cabbage looper larvae; 48 h after treatment): 51%
- Emax at 1 ppm (sugarcane borer larvae; 24 h after treatment): 30%
- Emax at 1 ppm (sugarcane borer larvae; 48 h after treatment): 32%
- Emax at 0.1 ppm ([1]; 24 h after treatment): 23%
- Emax at 0.1 ppm ([1]; 48 h after treatment): 39%
- Emax at 1 ppm (soybean looper larvae; 24 h after treatment): 6%
- Emax at 1 ppm (soybean looper larvae; 48 h after treatment): 10%
- Emax at 10 ppm (corn earworm larvae; 24 h after treatment): 29%
- Emax at 10 ppm (corn earworm larvae; 48 h after treatment): 33%
